Measurements: ChEMBL document CHEMBL1201862, “PubChem BioAssay data set” (2004)
The source made the active and inactive calls.

Columns and labels:
Ion channel NompC = Ion channel NompC (Danio rerio, UniProt Q7T1G6); assay: Fluorescence counterscreen assay for TRPML3 agonists: dose response cell-based high-throughput screening assay to identify agonists of the transient receptor potential channel N1 (TRPN1). [Related pubchem assays: 1526, 1424, 1448 ]; assay type: functional
Mucolipin-3 = Mucolipin-3 (Homo sapiens, UniProt Q8TDD5); assay: Dose response cell-based high-throughput screening assay for agonists of the transient receptor potential channel ML3 (TRPML3). [Related pubchem assays: 1526, 1424, 1448 ]; assay type: functional
Bcl-2-like protein 10 = target: T1, Bcl-2-like protein 10 (Homo sapiens, UniProt Q9HD36); assay: Concentration-response of Bcl-B inhibitors by biochemical FP with TR3 (AID 1243); assay type: functional
T1 sequence (Q9HD36 whole entry): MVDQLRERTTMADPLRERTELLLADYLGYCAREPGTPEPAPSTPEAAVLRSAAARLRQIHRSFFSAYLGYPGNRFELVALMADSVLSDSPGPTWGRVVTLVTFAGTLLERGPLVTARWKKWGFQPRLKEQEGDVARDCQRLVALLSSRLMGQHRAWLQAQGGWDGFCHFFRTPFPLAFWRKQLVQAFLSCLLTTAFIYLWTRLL

[1] = target: Peroxisome proliferator-activated receptor gamma/Nuclear receptor coactivator 3 (Homo sapiens, UniProt P37231); assay type: functional;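 note: agonist potency for raising coactivator recruitment to the receptor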
[2] = target: Peroxisome proliferator-activated receptor gamma/Nuclear receptor coactivator 1 (Homo sapiens, UniProt P37231); assay type: functional;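 note: agonist potency as compounds enhance coactivator SRC-1 recruitment to PPARgamma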
[3] = target: Peroxisome proliferator-activated receptor gamma/Nuclear receptor coactivator 2 (Homo sapiens, UniProt P37231); assay type: functional;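 note: agonist potency for raising coactivator recruitment to the receptor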
Estrogen receptor beta [4] = target: T2, Estrogen receptor beta (Homo sapiens, UniProt Q92731);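 note: recombinant ER-beta bound to coactivator SRC1 peptide in presence of estradiol agonist; inhibitors block coactivator peptide binding and lower the FRET signal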
Estrogen receptor beta [5] = target: T2, Estrogen receptor beta; assay: blockers of SRC-3 recruitment to ERβ – biochemical, ELISA, streptavidin-HRP readout, orthogonal assay, confirmation (AID 1060)
NADPH oxidase 1 = target: T3, NADPH oxidase 1 (Homo sapiens, UniProt Q9Y5S8); assay type: functional, cell-based;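 note: Cell-based assay with luminescence read-out, IC50 derived from inhibitor dose-response curves; intracellular ROS from endogenous NOX1 in intact HT29 colon cancer cells; potency of inhibitors that lower the ROS luminescence signal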
T3 sequence (Q9Y5S8 whole entry): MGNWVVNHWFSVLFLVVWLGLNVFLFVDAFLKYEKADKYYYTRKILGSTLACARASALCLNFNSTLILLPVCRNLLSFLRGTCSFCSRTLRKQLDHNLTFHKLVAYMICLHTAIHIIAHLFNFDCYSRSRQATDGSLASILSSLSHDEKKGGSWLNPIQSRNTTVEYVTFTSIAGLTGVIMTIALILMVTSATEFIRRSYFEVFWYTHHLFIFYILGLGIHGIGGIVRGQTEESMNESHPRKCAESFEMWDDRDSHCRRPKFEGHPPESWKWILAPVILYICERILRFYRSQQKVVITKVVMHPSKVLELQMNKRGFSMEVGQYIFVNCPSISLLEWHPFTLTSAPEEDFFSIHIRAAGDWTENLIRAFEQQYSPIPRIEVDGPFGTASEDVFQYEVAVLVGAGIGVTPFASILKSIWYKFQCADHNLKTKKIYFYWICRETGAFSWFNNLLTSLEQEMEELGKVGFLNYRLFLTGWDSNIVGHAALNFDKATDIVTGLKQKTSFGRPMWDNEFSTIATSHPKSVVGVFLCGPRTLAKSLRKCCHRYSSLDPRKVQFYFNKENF

[6] = Luminescence Cell-Based Dose Confirmation HTS to Identify Inhibitors of Polyadenylation.; assay type: functional
[7] = target: T4, Corticotropin-releasing factor receptor 2/Corticotropin-releasing factor-binding protein (Homo sapiens, UniProt P24387+Q13324); assay: activators of CRF receptor 2 with binding protein – uHTS hits, confirmation (AID 602473); assay type: functional; details: read-out: EC50_Mean
T4 sequence (Q13324 whole entry): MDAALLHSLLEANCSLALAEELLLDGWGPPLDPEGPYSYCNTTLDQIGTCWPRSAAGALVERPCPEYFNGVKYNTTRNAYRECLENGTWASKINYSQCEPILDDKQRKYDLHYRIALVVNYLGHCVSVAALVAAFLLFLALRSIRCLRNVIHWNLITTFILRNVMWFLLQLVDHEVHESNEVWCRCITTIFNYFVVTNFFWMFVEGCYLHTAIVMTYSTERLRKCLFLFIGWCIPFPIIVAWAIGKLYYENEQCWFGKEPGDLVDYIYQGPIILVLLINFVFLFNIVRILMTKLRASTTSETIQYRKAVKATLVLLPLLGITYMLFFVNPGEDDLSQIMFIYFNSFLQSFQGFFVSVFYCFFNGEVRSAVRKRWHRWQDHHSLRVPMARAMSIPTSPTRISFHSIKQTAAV
T4 sequence (P24387 whole entry): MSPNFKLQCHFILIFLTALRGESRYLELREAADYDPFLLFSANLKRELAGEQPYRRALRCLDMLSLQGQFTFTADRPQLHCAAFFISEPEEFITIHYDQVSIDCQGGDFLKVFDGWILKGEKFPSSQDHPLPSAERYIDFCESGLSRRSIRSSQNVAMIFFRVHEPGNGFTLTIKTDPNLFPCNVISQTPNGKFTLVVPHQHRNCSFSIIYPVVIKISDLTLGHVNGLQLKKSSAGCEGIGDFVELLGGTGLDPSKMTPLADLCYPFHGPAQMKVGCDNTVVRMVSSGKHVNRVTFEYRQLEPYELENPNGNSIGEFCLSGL

[8] = target: T5, Dual specificity protein phosphatase 6 (Rattus norvegicus, UniProt Q64346)
T5 sequence (Q64346 whole entry): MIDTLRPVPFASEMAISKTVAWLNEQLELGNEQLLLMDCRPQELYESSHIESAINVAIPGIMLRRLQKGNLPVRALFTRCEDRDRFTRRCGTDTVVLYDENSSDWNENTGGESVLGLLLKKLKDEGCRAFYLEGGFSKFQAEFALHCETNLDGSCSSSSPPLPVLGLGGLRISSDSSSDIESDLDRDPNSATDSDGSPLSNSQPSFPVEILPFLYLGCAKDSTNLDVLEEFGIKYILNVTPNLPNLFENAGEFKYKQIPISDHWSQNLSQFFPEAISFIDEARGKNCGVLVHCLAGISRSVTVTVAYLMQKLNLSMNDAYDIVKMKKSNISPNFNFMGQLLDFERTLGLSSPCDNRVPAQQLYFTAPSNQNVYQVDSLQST

[9] = target: T5, Dual specificity protein phosphatase 6; assay type: functional
[10] = target: T6, Tyrosine-protein phosphatase non-receptor type 7 (Homo sapiens, UniProt P35236); assay type: functional
T6 sequence (P35236 whole entry): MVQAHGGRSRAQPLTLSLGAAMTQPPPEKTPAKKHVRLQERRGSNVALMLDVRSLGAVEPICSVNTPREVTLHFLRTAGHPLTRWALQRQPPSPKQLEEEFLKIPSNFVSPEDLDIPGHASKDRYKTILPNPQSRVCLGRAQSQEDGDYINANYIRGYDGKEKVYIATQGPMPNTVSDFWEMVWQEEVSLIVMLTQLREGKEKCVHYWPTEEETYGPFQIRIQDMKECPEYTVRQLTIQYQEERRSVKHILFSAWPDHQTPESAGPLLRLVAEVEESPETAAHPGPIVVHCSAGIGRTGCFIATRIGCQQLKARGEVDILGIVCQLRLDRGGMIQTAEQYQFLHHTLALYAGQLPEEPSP

[11] = target: Glyceraldehyde-3-phosphate dehydrogenase (Homo sapiens, UniProt P04406)
Estrogen receptor = target: T7, Estrogen receptor (Homo sapiens, UniProt P03372);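 note: potency for inhibiting coactivator peptide recruitment to the receptor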
T7 sequence (P03372 whole entry): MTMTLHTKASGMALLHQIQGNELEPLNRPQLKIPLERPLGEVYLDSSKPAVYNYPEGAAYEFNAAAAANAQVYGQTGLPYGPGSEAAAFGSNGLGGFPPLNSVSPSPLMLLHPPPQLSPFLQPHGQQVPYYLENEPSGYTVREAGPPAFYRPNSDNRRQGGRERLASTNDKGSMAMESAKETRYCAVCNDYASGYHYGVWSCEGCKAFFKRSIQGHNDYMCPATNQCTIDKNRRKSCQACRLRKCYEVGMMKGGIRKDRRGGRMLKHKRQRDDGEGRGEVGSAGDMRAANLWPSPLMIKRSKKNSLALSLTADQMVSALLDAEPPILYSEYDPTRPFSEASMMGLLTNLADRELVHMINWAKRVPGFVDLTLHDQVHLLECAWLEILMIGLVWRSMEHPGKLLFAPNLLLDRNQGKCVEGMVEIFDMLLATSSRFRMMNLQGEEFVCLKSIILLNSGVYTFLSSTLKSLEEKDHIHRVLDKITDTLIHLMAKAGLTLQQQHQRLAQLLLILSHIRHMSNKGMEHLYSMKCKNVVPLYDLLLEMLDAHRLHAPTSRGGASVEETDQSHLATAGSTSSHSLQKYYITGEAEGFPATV

Melanocortin receptor 4 = Melanocortin receptor 4 (Homo sapiens, UniProt P32245); assay type: functional, cell-based;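 note: Cell-based assay with luminescence read-out, confirmatory dose-response testing for agonist activity of biased ligands at MC4R; human U2OS cells with tagged receptor and beta-arrestin; potency of agonists that increase receptor coupling to beta-arrestin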
[12] = target: Beta-2 adrenergic receptor (Homo sapiens, UniProt P07550); assay: ADRB2 activation measured by internalization – cell-based, FAP fluorogen, flow cytometry, cherry pick 1, dose response (AID 588763); assay type: functional
[13] = viability of HCT116 lacking mutant beta-catenin – cell-based, human colon tumor, dose response (AID 1045); assay type: functional;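 note: HCT116 colon tumor cells with beta catenin knocked out; cells exposed to compound for 60 hours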
[14] = loss of viability in HepG2 cells – cell-based, CellTiter-Glo, cherry-picked, cytotoxicity control for Shn3 inhibitor project, dose response (AID 624134); assay type: functional
[15] = reduction of Shn3 3'UTR-driven luciferase in osteoblasts – cell-based, Clone20 osteoblasts, firefly luciferase, cherry-picked, dose response (AID 624132); assay type: functional;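 note: firefly luciferase luminescence from reporter carrying the Shn3 3'UTR in osteoblasts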
[16] = non-specific 3'UTR reporter inhibition in Clone20-Shn3RL – cell-based, Renilla luciferase, cherry-picked, counter-screen for Shn3 inhibitor project, dose response (AID 624133); assay type: functional
[17] = viability of PTEN-deleted HCT116 cells – cell-based, HCT116 PTEN knockout, dose response (AID 1047); assay type: functional;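 note: HCT116 colon tumor cells with PTEN knocked out; cells exposed to compound for 60 hours before readout; potency for loss of cell viability measured by luminescence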
[18] = target: Scavenger receptor class B member 1 (Mus musculus, UniProt Q61009); assay: mouse SR-BI DiI-HDL uptake blockers – ldlA[mSR-BI] cells, fluorescence, cherry pick, dose response (AID 493194); assay type: functional, cell-based;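 note: cellular uptake of fluorescent DiI-labeled HDL measured as cell fluorescence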
Chain of Scavenger receptor class B member 1 (Q61009 whole entry): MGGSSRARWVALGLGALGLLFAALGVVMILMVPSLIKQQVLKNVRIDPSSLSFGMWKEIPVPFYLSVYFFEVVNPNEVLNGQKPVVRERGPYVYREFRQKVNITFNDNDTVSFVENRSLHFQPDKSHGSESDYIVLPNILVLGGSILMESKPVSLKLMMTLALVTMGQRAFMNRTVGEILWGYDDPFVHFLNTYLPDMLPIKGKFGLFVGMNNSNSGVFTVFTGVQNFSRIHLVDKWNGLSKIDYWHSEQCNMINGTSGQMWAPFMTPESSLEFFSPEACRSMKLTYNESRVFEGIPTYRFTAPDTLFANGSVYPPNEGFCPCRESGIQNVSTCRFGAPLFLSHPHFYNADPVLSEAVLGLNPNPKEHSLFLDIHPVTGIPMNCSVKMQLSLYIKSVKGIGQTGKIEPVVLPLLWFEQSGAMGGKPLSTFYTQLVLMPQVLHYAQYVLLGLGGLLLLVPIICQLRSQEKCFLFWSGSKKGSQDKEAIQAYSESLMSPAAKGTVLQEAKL

T2 sequence (Q92731 whole entry): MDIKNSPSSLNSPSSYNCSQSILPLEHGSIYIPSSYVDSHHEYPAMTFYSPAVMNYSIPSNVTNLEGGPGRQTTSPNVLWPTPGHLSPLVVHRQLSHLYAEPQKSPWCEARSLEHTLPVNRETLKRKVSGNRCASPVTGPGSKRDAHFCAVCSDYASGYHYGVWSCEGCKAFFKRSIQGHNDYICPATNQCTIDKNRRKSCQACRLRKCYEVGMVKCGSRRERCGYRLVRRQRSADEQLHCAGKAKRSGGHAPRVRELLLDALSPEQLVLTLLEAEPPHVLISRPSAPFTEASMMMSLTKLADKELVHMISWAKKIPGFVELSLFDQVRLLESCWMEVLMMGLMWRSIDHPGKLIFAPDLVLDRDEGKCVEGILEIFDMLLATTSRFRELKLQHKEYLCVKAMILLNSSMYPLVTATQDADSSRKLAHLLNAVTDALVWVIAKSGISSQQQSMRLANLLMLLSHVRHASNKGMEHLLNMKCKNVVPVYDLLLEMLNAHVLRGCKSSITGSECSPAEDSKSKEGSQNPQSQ
Chain of Mucolipin-3 (Q8TDD5 whole entry): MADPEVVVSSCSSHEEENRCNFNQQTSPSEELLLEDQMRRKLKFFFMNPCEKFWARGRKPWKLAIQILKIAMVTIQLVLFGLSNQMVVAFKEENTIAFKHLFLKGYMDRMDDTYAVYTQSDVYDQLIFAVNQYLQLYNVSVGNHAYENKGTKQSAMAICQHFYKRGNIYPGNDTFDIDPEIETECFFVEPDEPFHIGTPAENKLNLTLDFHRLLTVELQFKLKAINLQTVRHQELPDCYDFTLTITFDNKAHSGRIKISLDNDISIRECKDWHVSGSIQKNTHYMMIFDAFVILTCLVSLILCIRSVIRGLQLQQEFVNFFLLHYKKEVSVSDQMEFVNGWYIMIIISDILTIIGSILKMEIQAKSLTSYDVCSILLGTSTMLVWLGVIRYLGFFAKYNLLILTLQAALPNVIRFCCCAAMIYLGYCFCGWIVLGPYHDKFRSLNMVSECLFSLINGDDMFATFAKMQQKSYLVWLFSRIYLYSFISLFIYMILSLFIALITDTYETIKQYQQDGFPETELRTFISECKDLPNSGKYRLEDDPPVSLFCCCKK
Chain of Glyceraldehyde-3-phosphate dehydrogenase (P04406 whole entry): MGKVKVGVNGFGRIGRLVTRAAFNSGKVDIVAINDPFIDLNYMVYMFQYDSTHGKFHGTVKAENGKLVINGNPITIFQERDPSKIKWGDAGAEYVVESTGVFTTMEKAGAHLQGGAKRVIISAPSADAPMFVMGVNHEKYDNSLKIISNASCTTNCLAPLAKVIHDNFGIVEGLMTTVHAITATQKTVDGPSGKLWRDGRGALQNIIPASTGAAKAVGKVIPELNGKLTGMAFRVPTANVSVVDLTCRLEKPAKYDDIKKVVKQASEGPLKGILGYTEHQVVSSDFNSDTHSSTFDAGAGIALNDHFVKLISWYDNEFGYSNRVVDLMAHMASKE
Chain of Ion channel NompC (Q7T1G6 whole entry): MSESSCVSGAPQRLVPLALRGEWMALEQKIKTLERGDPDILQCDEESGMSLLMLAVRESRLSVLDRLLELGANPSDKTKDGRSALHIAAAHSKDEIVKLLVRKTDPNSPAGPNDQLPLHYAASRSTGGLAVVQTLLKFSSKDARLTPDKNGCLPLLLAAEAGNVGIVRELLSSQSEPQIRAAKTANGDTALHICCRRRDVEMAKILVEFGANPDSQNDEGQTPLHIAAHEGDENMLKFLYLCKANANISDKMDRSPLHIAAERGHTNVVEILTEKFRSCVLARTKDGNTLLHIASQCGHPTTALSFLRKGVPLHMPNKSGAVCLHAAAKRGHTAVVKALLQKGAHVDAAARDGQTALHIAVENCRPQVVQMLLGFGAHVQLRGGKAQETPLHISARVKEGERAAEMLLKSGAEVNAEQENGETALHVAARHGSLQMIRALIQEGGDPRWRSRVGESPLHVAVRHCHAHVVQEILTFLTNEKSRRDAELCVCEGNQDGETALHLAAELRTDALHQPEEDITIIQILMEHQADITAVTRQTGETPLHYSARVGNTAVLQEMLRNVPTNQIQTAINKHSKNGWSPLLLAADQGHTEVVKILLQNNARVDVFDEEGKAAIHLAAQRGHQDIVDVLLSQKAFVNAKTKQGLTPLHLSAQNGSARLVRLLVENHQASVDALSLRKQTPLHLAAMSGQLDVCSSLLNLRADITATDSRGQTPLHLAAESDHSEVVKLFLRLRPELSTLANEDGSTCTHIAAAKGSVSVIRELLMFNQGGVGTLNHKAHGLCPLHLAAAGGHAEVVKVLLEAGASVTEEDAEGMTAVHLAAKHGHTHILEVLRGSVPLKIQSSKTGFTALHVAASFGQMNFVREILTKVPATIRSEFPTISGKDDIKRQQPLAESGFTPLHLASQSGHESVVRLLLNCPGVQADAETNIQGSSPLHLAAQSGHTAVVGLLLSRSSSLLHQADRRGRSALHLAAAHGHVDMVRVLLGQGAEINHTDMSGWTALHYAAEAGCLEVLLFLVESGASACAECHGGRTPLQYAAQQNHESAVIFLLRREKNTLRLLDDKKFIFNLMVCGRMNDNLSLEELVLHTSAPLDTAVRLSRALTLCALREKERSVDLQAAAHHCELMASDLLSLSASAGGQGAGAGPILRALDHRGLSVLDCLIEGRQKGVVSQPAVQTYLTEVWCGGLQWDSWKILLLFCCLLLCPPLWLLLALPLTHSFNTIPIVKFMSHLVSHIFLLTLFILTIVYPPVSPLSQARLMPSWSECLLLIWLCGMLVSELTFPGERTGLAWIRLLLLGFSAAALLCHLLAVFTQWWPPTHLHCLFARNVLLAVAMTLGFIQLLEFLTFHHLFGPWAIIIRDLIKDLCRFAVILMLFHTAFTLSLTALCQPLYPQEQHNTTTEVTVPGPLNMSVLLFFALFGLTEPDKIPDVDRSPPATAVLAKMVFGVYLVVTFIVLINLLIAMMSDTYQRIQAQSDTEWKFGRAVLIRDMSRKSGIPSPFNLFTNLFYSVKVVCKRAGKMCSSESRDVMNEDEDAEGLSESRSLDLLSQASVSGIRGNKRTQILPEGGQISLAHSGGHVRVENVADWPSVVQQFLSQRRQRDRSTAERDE
Chain of Beta-2 adrenergic receptor (P07550 whole entry): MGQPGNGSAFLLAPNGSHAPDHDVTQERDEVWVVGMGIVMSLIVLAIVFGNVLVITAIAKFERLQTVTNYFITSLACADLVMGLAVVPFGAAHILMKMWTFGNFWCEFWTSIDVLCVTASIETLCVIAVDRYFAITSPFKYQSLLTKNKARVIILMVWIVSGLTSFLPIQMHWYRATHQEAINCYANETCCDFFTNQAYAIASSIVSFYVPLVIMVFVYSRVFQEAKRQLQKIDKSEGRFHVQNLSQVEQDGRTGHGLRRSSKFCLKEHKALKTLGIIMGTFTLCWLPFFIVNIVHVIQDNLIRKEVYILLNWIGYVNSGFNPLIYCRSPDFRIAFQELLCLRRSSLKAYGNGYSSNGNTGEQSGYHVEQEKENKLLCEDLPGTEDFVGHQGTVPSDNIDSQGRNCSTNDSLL
Chain of Melanocortin receptor 4 (P32245 whole entry): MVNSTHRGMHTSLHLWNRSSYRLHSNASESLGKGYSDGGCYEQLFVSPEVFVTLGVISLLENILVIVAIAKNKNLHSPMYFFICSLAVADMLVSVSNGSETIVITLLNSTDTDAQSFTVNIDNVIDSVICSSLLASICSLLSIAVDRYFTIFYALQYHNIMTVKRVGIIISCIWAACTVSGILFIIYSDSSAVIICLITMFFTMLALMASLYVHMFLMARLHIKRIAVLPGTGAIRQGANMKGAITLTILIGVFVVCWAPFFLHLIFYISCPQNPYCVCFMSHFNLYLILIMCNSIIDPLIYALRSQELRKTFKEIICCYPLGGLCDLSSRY

Question: With `Cc1ccc(S(=O)(=O)N2C(=S)SCC2(C)C)cc1` as the molecule, how does the EC50 (Ion channel NompC) read?
Answer: > 29.9 µM (not active)

Question: And the EC50 (Mucolipin-3)?
Answer: 7.22 µM (active)

Question: With `Cc1cc(C)nc(/N=C(\N)Nc2cccc(N)c2)n1` as the molecule, how does the EC50 (Bcl-2-like protein 10) read?
Answer: 5.45 µM (active)

Question: Which results are given for `COc1cc(C(=S)N2CCOCC2)cc(OC)c1OC(=O)c1cc([N+](=O)[O-])c(C)c([N+](=O)[O-])c1`?
Answer: EC50 [1]: > 79.4 µM (not active); EC50 [2]: > 79.4 µM (not active); EC50 [3]: > 79.4 µM (not active)

Question: With `c1ccc(-c2nnc3sc(Cc4cccs4)nn23)cc1` as the molecule, how does the IC50 (Estrogen receptor beta [4]) read?
Answer: 21.6 µM (active)

Question: And the IC50 (Estrogen receptor beta [5])?
Answer: > 109 µM (not active)

Question: With `O=C(Cc1ccccc1)NNC(=O)Cc1ccccc1` as the molecule, how does the IC50 (NADPH oxidase 1) read?
Answer: > 17 µM (not active)

Question: For `C/C(=C\C=C(C#N)C#N)c1cc(C#N)c(N)o1`, which EC50 [6] is on record?
Answer: 11.1 µM (active)

Question: And the EC50 [7]?
Answer: 5.13 µM (active)

Question: Which results are given for `CCOc1ccccc1N1CCN(S(=O)(=O)c2ccc(Cl)s2)CC1`?
Answer: EC50 (Ion channel NompC): > 29.9 µM (not active); EC50 (Mucolipin-3): 8.16 µM (active)

Question: For `O=C1C=CC2=C3Oc4c(ccc5cc(O)ccc45)C(c4ccccc4C(=O)O)C3C=CC2=C1` (stereo not drawn), which EC50 (Bcl-2-like protein 10) is on record?
Answer: 1.68 µM (active)

Question: For `CN(C)CCCN1c2ccccc2Sc2ccc(Cl)cc21` [CHLORPROMAZINE], which IC50 (NADPH oxidase 1) is on record?
Answer: > 17 µM (not active)

Question: With `CCCCCCCCCCCCCCCCCCC#CCCCCCCCCCCCC(=O)O` as the molecule, how does the IC50 [8] read?
Answer: > 100 µM (inactive)

Question: And the IC50 [9]?
Answer: > 100 µM (inactive)

Question: And the IC50 [10]?
Answer: 28.3 µM (active)

Question: What about the IC50 [11] of the same molecule?
Answer: > 100 µM (not active)

Question: With `CCN1C(=O)/C(=C2/Sc3ccc(OC)cc3N2C)S/C1=N\c1cccc(O)c1` as the molecule, how does the IC50 (Estrogen receptor beta [4]) read?
Answer: > 50 µM (not active)

Question: And the IC50 (Estrogen receptor beta [5])?
Answer: 0.0604 µM (not active)

Question: What about the IC50 (Estrogen receptor) of the same molecule?
Answer: > 50 µM (not active)

Question: What about the EC50 (Melanocortin receptor 4) of the same molecule?
Answer: > 89.2 µM (inactive)

Question: Which EC50 [1] does the source give for `CCCCCCN1C(=O)NC(=O)/C(=C\Nc2c(C)n(C)n(-c3ccccc3)c2=O)C1=O` here?
Answer: > 79.4 µM (not active)

Question: And the EC50 [12]?
Answer: 1.31 µM (active)

Question: What about the EC50 [2] of the same molecule?
Answer: > 79.4 µM (not active)

Question: What about the EC50 [3] of the same molecule?
Answer: > 79.4 µM (not active)

Question: Which EC50 [13] does the source give for `O=C(Nc1ccc(Cl)c(Cl)c1)Nc1ccc(N2CCCC2)c(S(=O)(=O)Nc2ccccc2Cl)c1` here?
Answer: 3.8 µM (active)

Question: What about the AC50 [14] of the same molecule?
Answer: 27 µM (active)

Question: What about the AC50 [15] of the same molecule?
Answer: 5.13 µM (active)

Question: And the AC50 [16]?
Answer: 11.4 µM (active)

Question: What about the EC50 [17] of the same molecule?
Answer: 3.35 µM (active)

Question: And the AC50 [18]?
Answer: 12.7 µM (active)

Question: With `Cn1c(=O)n(-c2ccc(Cl)cc2)c(=O)n([C@@H](Cc2ccccc2)C(N)=O)c1=O` as the molecule, how does the IC50 [8] read?
Answer: > 100 µM (inactive)

Question: And the IC50 [9]?
Answer: > 100 µM (inactive)

Question: And the IC50 [10]?
Answer: > 100 µM (not active)

Question: What about the IC50 [11] of the same molecule?
Answer: > 100 µM (not active)

Question: Which AC50 [18] does the source give for `O=C(NNC(=O)c1cc(Br)ccc1O)c1csc(N2CCOCC2)n1` here?
Answer: 2.75 µM (active)
